According to ChEMBL document CHEMBL1201862, “PubChem BioAssay data set” (2004):
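Growth conditions: 96-well plates. Treatment: test compound, 48 hours, 5 concentrations. Analysis: linear interpolation between bracketing concentrations; unreached endpoints set to highest concentration. GI50 is the concentration that inhibits growth by half.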 Active and inactive are the calls of the source. Rule as the data show it: active = GI50 up to about 1.1 µM and inactive = higher.

How the values were obtained:
Assay in all cases: inhibition of tumour cell growth, NCI panel, 48 h
A498 = tested on: A498
EKVX = tested on: EKVX
HCC 2998 = tested on: HCC 2998
HL-60 = tested on: HL-60
Hs-578T = tested on: Hs-578T
IGROV-1 = tested on: IGROV-1
KM12 = tested on: KM12
MCF7 = tested on: MCF7
NCI-H23 = tested on: NCI-H23
OVCAR-3 = tested on: OVCAR-3
RPMI-8226 = tested on: RPMI-8226
SK-MEL-28 = tested on: SK-MEL-28
SK-OV-3 = tested on: SK-OV-3
SW-620 = tested on: SW-620
T47D = tested on: T47D
UACC-62 = tested on: UACC-62
OVCAR-4 = tested on: OVCAR-4
OVCAR-8 = tested on: OVCAR-8
SF-295 = tested on: SF-295

SMILES | GI50 (A498) | GI50 (EKVX) | GI50 (HCC 2998) | GI50 (HL-60) | GI50 (Hs-578T) | GI50 (IGROV-1) | GI50 (KM12) | GI50 (MCF7) | GI50 (NCI-H23) | GI50 (OVCAR-3) | GI50 (RPMI-8226) | GI50 (SK-MEL-28) | GI50 (SK-OV-3) | GI50 (SW-620) | GI50 (T47D) | GI50 (UACC-62) | GI50 (OVCAR-4) | GI50 (OVCAR-8) | GI50 (SF-295)
CCOC(=O)NC(NCC(O)c1ccccc1)(C(F)(F)F)C(F)(F)F (stereo not given) | > 100 µM (inactive) | > 100 µM (inactive) | > 100 µM (inactive) | > 100 µM (inactive) | > 100 µM (inactive) | > 100 µM (inactive) | > 100 µM (inactive) | > 100 µM (inactive) | > 100 µM (inactive) | > 100 µM (inactive) | > 100 µM (inactive) | > 100 µM (inactive) | > 100 µM (inactive) | > 100 µM (inactive) | > 100 µM (inactive) | > 100 µM (inactive) | – | – | –
Cc1ccc(CSC(=N)Nc2ccccc2)cc1C | 16.6 µM (inactive) | 26.4 µM (inactive) | – | 30.3 µM (inactive) | 23.2 µM (inactive) | 23.2 µM (inactive) | 19.5 µM (inactive) | 18.7 µM (inactive) | 22.9 µM (inactive) | 19.3 µM (inactive) | 22.5 µM (inactive) | 24.7 µM (inactive) | 24.8 µM (inactive) | 38.3 µM (inactive) | 17.2 µM (inactive) | 13.1 µM (inactive) | 16.1 µM (inactive) | 19 µM (inactive) | 25 µM (inactive)
CC(C)(C)[Si](C)(C)OCCCCC1CC2(S(=O)(=O)C3=CC=C=C=C3)ON1CC2S(=O)(=O)c1ccccc1 (stereo not given) | > 100 µM (inactive) | > 100 µM (inactive) | > 100 µM (inactive) | – | > 100 µM (inactive) | > 100 µM (inactive) | > 100 µM (inactive) | > 100 µM (inactive) | > 100 µM (inactive) | > 100 µM (inactive) | > 100 µM (inactive) | > 100 µM (inactive) | > 100 µM (inactive) | > 100 µM (inactive) | > 100 µM (inactive) | > 100 µM (inactive) | > 100 µM (inactive) | > 100 µM (inactive) | –
C#CCNC(CSSCC(N)C(=O)O)C(=O)O (stereo not given) | > 100 µM (inactive) | > 100 µM (inactive) | > 100 µM (inactive) | – | > 100 µM (inactive) | > 100 µM (inactive) | > 100 µM (inactive) | > 100 µM (inactive) | > 100 µM (inactive) | > 100 µM (inactive) | > 100 µM (inactive) | > 100 µM (inactive) | > 100 µM (inactive) | > 100 µM (inactive) | > 100 µM (inactive) | > 100 µM (inactive) | > 100 µM (inactive) | > 100 µM (inactive) | > 100 µM (inactive)
N#C/C(N)=C(C#N)/N=C/N | – | > 100 µM (inactive) | > 100 µM (inactive) | > 100 µM (inactive) | > 100 µM (inactive) | > 100 µM (inactive) | > 100 µM (inactive) | > 100 µM (inactive) | > 100 µM (inactive) | > 100 µM (inactive) | > 100 µM (inactive) | > 100 µM (inactive) | > 100 µM (inactive) | > 100 µM (inactive) | > 100 µM (inactive) | > 100 µM (inactive) | > 100 µM (inactive) | > 100 µM (inactive) | > 100 µM (inactive)
COc1cc2c(c(OC)c1OC)-c1ccc(SC)c(=O)cc1[C@@H](O)CC2 | 0.0305 µM (active) | 0.000748 µM (active) | 0.00122 µM (active) | 0.000269 µM (active) | 0.000261 µM (active) | 0.00067 µM (active) | 0.000234 µM (active) | 0.000386 µM (active) | 0.000803 µM (active) | – | – | 0.0222 µM (active) | 0.000392 µM (active) | 0.000333 µM (active) | > 1 µM (active) | 0.000469 µM (active) | > 1 µM (active) | 0.00107 µM (active) | 0.000225 µM (active)
CCOC(=O)/C(=N\OC)C(O)C(F)(F)F (stereo not given) | > 100 µM (inactive) | > 100 µM (inactive) | > 100 µM (inactive) | > 100 µM (inactive) | > 100 µM (inactive) | > 100 µM (inactive) | > 100 µM (inactive) | > 100 µM (inactive) | > 100 µM (inactive) | – | > 100 µM (inactive) | > 100 µM (inactive) | > 100 µM (inactive) | > 100 µM (inactive) | > 100 µM (inactive) | > 100 µM (inactive) | – | > 100 µM (inactive) | > 100 µM (inactive)
CC(=O)O[C@H]1CCn2c3c(c(C)c21)C(=O)C(N1CC1)=C(C)C3=O | – | > 10 µM (inactive) | > 10 µM (inactive) | > 10 µM (inactive) | > 10 µM (inactive) | > 10 µM (inactive) | > 10 µM (inactive) | 5.51 µM (inactive) | 1.68 µM (inactive) | > 10 µM (inactive) | > 10 µM (inactive) | – | > 10 µM (inactive) | > 10 µM (inactive) | > 10 µM (inactive) | 9.04 µM (inactive) | > 10 µM (inactive) | > 10 µM (inactive) | 5.11 µM (inactive)
CCc1ccccc1NC(=O)/C=C/c1ccccc1 | > 100 µM (inactive) | > 100 µM (inactive) | > 100 µM (inactive) | – | 70.6 µM (inactive) | – | > 100 µM (inactive) | > 100 µM (inactive) | > 100 µM (inactive) | > 100 µM (inactive) | > 100 µM (inactive) | > 100 µM (inactive) | > 100 µM (inactive) | > 100 µM (inactive) | > 100 µM (inactive) | > 100 µM (inactive) | > 100 µM (inactive) | > 100 µM (inactive) | > 100 µM (inactive)
CC(C)CCCC(=O)CCCCCCC(=O)CCN(O)C(=O)C(N)CO (stereo not given) | 16.3 µM (inactive) | 10.6 µM (inactive) | – | 20 µM (inactive) | 28.5 µM (inactive) | 13.5 µM (inactive) | 17.6 µM (inactive) | 19.8 µM (inactive) | 15.1 µM (inactive) | 17.3 µM (inactive) | 21.7 µM (inactive) | 19.1 µM (inactive) | 19.1 µM (inactive) | 30.3 µM (inactive) | 13.8 µM (inactive) | 16.7 µM (inactive) | – | 16.9 µM (inactive) | 18.3 µM (inactive)
COC1CC(OC2C(C)OC(OC3C(C)OC(OC4C(C)OC(O[C@H]5CC[C@@]6(C)C(=CC[C@]7(O)[C@@H]6C[C@@H](OC(=O)/C=C/c6ccccc6)[C@@]6(C)[C@]7(O)CC[C@@]6(O)C(C)=O)C5)CC4OC)CC3OC)CC2OC)OC(C)C1O (stereo not given in full) | – | > 12.5 µM (inactive) | > 12.5 µM (inactive) | 6.75 µM (inactive) | > 12.5 µM (inactive) | > 12.5 µM (inactive) | 10.1 µM (inactive) | > 12.5 µM (inactive) | > 12.5 µM (inactive) | 11 µM (inactive) | 5.98 µM (inactive) | > 12.5 µM (inactive) | > 12.5 µM (inactive) | > 12.5 µM (inactive) | > 12.5 µM (inactive) | > 12.5 µM (inactive) | > 12.5 µM (inactive) | > 12.5 µM (inactive) | > 12.5 µM (inactive)
